# Columns and labels:
# [1] = test system: Influenza A/Texas/1/77; experiment: Lethal intranasal virus infection of mice, single dose of active substance, survival; assay type: in vivo, Mäuse
# Protocol: (§1) Gruppen von 30, 40 oder 50 weiblichen MF-2f SPF-Mäusen mit einem Körpergewicht von 14-16 g bzw. 12-14 g bei den Versuchen mit Herpes simplex 1 Viren werden unter leichter Narkose mit einem Gemisch aus gleichen Teilen Aether, Äthanol und Chloroform mit letalen Dosen (ungefähr eine LD80-90; Anzahl der plaque forming units [PFU] siehe Tabelle 1) der untengenannten Viren-Stämme in Form von je 0,05 ml einer Suspension der Viren intranasal infiziert.
# (§2) 10 oder 20 von diesen Mäusen werden zum unten angegebenen Zeitpunkt [Tage] bezogen auf den Tag der Infektion einmal (Einzeldosis) die in Tabelle 1 genannten Mengen der Wirksubstanz N-Acetyl- muramyl-L-alanyl-D-isoglutaminyl-L-alanin-2-(1.2-dipalmitoyl-sn-glycero-3-hydroxyphosphoryioxy)-äthylamid-natriumsalz (Verbindung I) in 0,05 bzw. 0,1 ml Phosphat-gepufferter-Salzlösung (PBS) bzw. in 0,2 ml einer 0,05 Gew.-%igen Lösung von Natriumcarboxymethylcellulose in doppelt destilliertem Wasser im Falle von intranasaler, intravenöser bzw. oraler Applikation auf die in Tabelle 1 genannte Art appliziert.
# (§3) Die restlichen der obengenannten Mäuse, d. h. 20 oder 30, dienen zur Kontrolle, d. h. sie bleiben entweder unbehandelt oder erhalten ein Placebo.
# (§4) Die intranasale Applikation von Verbindung I wird unter leichter Narkose mit einem Gemisch aus gleichen Teilen Diäthyläther, Aethanol und Chloroform durchgeführt.
# [2] = test system: Herpesvirus hominis 1/TUP; experiment: Lethal intranasal virus infection of mice, single dose of active substance, protection; assay type: in vivo, Mäuse; conditions: 10 mg/kg, day -7, intranasal infection (Figur 3)
# Protocol: as §1, §2, §3, §4
# [3] = intranasal, 1 mg/kg, single dose on day '-' (number not given) before infection
# [4] = oral, 10 mg, single dose on day +7 after infection
SMILES,"Mäuse die Infektion überleben [1, 3]","Mäuse die Infektion überleben [1, 4]","Schutzwirkung [1, 3]","outcome of infection (death of mice) [1, 4]",Schutzwirkung [2]
"CCCCCCCCCCCCCCCC(=O)OC[C@H](COP(=O)(O)OCCNC(=O)[C@H](C)NC(=O)CC[C@@H](NC(=O)[C@H](C)NC(=O)[C@@H](C)O[C@H]1[C@H](O)[C@@H](CO)OC(O)[C@@H]1NC(C)=O)C(N)=O)OC(=O)CCCCCCCCCCCCCCC (stereo partly drawn) [Verbindung I, N-Acetyl-muramyl-L-alanyl-D-isoglutaminyl-L-alanin-2-(1,2-dipalmitoyl-sn-glycero-3-hydroxyphosphoryloxy)-äthylamid]",90%,65%,,,
"CCCCOC(=O)[C@@H](CCC(N)=O)NC(=O)[C@H](C)NC(=O)[C@@H](C)O[C@H]1[C@H](O)[C@@H](CO)OC(O)[C@@H]1NC(C)=O (stereo partly drawn) [Verbindung II, N-Acetyl-muramyl-L-alanyl-D-glutamin-n-butylester]",,,keinerlei Schutzwirkung,sämtliche Mäuse an der Infektion mit Influenza A/Texas/1/77 sterben,Keinerlei Schutzwirkung

# Source: patent publication EP0102319B1, “Prophylactic and therapeutic use of muramyl peptides and their analogues against viral infections” (CIBA-GEIGY AG, priority 1982, dated 1984)
